We go through 15 compounds from patent publication US20240092936A1, “METHODS OF TREATING HER2 POSITIVE BREAST CANCER WITH TUCATINIB IN COMBINATION WITH CAPECITABINE AND TRASTUZUMAB” (Seagen Inc., priority 2019, published 2024).

Entries after “also recorded” stand apart in the source; their conditions may differ. Read-outs that look alike come from different tables or passages of the source.

The conditions of data set [1]: cited from earlier work.
Data set [2] relates to patients on tucatinib studies. As to the kind of experiment: Safety observations in earlier tucatinib studies (e.g. ONT-380-005). Type of data set: in vivo, human. The conditions noted are these: patients taking tucatinib alone or in combination. The source says: Trastuzumab and other HER2-targeted therapies were known to increase the risk of the development of asymptomatic and symptomatic declines in LVEF. […] Cardiac function was therefore monitored closely.
Monitoring of liver function tests was required for any patient taking tucatinib.
Patients with brain metastases were at risk for occurrence of AEs due to the presence of CNS lesions, progression of disease and toxicities potentially related to study treatment. On occasion, treatment of brain metastases with systemic or radiation therapy had been associated with localized edema thought to be due to treatment effect and not tumor progression. […] The patient's symptoms responded rapidly and completely to systemic corticosteroids. It was not known if this patient's symptoms were due to local progression or treatment-related toxicity. […] The patient was taken for surgical resection, and found to have no viable tumor. The resected lesion was thought to represent treatment-related necrosis.

The mark [3] stands for this setting: Table 11, strong inhibitors or inducers of CYP3A4.
The mark [4] stands for this setting: Table 10, strong inhibitors and inducer of CYP2C8.

On to `NC(=O)N1c2ccccc2C=Cc2ccccc21` [Carbamazepine], for which the “Elimination Half-life” value in data set [1] (Table 11, repeat dose) is 12 to 17 h (repeat dose). In addition, the “Elimination Half-life (hours)” value in data set [1] (Table 11, single dose) is recorded as 25-65 hours (single does),.

As to `CC[C@H]1OC(=O)[C@H](C)[C@@H](O[C@H]2C[C@@](C)(OC)[C@@H](O)[C@H](C)O2)[C@H](C)[C@@H](O[C@@H]2O[C@H](C)C[C@H](N(C)C)[C@H]2O)[C@](C)(OC)C[C@@H](C)C(=O)[C@H](C)[C@@H](O)[C@]1(C)O` [Clarithromycin], the “Elimination Half-life” value in data set [1] (setting [3]) is 3 to 7 h.

Regarding `COC(=O)[C@H](c1ccccc1Cl)N1CCc2sccc2C1` [Clopidogrel], the “Elimination Half-life” value in data set [1] (setting [4]) is 6 h.

In the case of `COc1ccc([C@@H]2Sc3ccccc3N(CCN(C)C)C(=O)[C@@H]2OC(C)=O)cc1` [Diltiazem], the “Elimination Half-life” value in data set [1] (setting [3]) was 3 to 4 h.

As for `Cc1ccc(C)c(OCCCC(C)(C)C(=O)O)c1` [Gemfibrozil], the “Elimination Half-life” value in data set [1] (setting [4]) was 1 to 2 h.

`CCC(C)n1ncn(-c2ccc(N3CCN(c4ccc(OCC5COC(Cn6cncn6)(c6ccc(Cl)cc6Cl)O5)cc4)CC3)cc2)c1=O` (centres unmarked) [Itraconazole]: in data set [1] (Table 11, repeat dose), the “Elimination Half-life” value is 34 to 42 h (repeat dose). For the same compound, in data set [1] (Table 11, single dose), the “Elimination Half-life (hours)” value is recorded as 16-28 hours (single dose),.

For `CC(=O)N1CCN(c2ccc(OCC3COC(Cn4ccnc4)(c4ccc(Cl)cc4Cl)O3)cc2)CC1` (centres unmarked) [Ketoconazole (systemic), Ketoconazole], in data set [1] (setting [3]), the “Elimination Half-life” value was 2 to 8 h.

As for `CC(C)(O)c1ccccc1CC[C@@H](SCC1(CC(=O)O)CC1)c1cccc(/C=C/c2ccc3ccc(Cl)cc3n2)c1` [Montelukast], the “Elimination Half-life” value in data set [1] (setting [4]) was 3 to 6 h.

Turning to `CCc1nn(CCCN2CCN(c3cccc(Cl)c3)CC2)c(=O)n1CCOc1ccccc1` [Nefazodone], the “Elimination Half-life” value in data set [1] (setting [3]) is 2 to 4 h.

`O=C1NC(=O)C(c2ccccc2)(c2ccccc2)N1` [Phenytoin]: the “Elimination Half-life” value in data set [1] (setting [3]) is 7 to 42 h.

For the compound `CC[C@@H]([C@H](C)O)n1ncn(-c2ccc(N3CCN(c4ccc(OC[C@@H]5CO[C@@](Cn6cncn6)(c6ccc(F)cc6F)C5)cc4)CC3)cc2)c1=O` [Posoconazole], the “Elimination Half-life” value in data set [1] (setting [3]) is 27 to 35 h.

Turning to `COc1cc(Cc2cnc(N)nc2N)cc(OC)c1OC` [Trimethoprim], in data set [1] (setting [4]), the “Elimination Half-life” value was 8 to 12 h.

`C[C@@H](c1ncncc1F)[C@](O)(Cn1cncn1)c1ccc(F)cc1F` [Voriconazole]: the “Elimination Half-life (hours)” value in data set [1] (setting [3]) was “Dose dependent”.

For the compound `Cc1cc(Nc2ncnc3ccc(NC4=NC(C)(C)CO4)cc23)ccc1Oc1ccn2ncnc2c1` [tucatinib], the “Adverse findings reported in earlier tucatinib studies” value in data set [2] is “rare reports of asymptomatic cardiac failure; also recorded: Grade 3 and 4 elevation of LFTs had been seen in some patients”.

For Troleanomycin, in data set [1] (setting [3]), the “Elimination Half-life” value was 2 h.
